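All cell lines were grown in 96-well plates and treated with compound for 48 hours. GI50 = concentration required for 50% inhibition of growth. At the TGI there is no net growth.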
What was measured:
Assay in all cases: NCI tumour cell line growth inhibition, 48 h
[1] = system: SK-OV-3 ovarian
[2] = system: UACC-62 melanoma
[3] = system: CAKI-1 renal
[4] = system: ACHN renal
[5] = system: HT29 colon
[6] = system: SNB-19 CNS
[7] = system: CCRF-CEM leukemia
[8] = system: UACC-257 melanoma
[9] = system: SR leukemia
[10] = system: T-47D breast

| Structure (SMILES) | GI50 [1] [µM] | TGI [1] [µM] | GI50 [2] [µM] | TGI [2] [µM] | GI50 [3] [µM] | TGI [3] [µM] | GI50 [4] [µM] | TGI [4] [µM] | GI50 [5] [µM] | TGI [5] [µM] | GI50 [6] [µM] | TGI [6] [µM] | GI50 [7] [µM] | TGI [7] [µM] | GI50 [8] [µM] | TGI [8] [µM] | GI50 [9] [µM] | TGI [9] [µM] | GI50 [10] [µM] | TGI [10] [µM] |
| --- | --- | --- | --- | --- | --- | --- | --- | --- | --- | --- | --- | --- | --- | --- | --- | --- | --- | --- | --- | --- |
| C/C(=C\C(=O)O[C@H]1[C@@H]2[C@H](C)CC[C@H]2[C@]2(C)O[C@@]1(C1CCCCC1)C[C@H]2OC(=O)CO)c1ccccc1 | 7.15 | 13.2 | 6.62 | 12.4 | 0.0235 | 5.01 | 0.0147 | 6.02 | 6.47 | 13 | 7.41 | 13.1 | 7 | 15.3 | 6.96 | 13.3 | 6.87 | 15 | 5.44 | 12.1 |
| COc1ccc(C2=NN(C(N)=S)C(c3ccc4c(c3)OCO4)C2)cc1 (centres undefined) | 2.35 | 6.12 | 3.79 | 21.1 | 2.6 | 8.91 | 3.58 | > 100 | 3.13 | > 100 | 3.13 | 22.8 | 2.5 | 8.18 | 3.96 | 68.5 | 3.08 | 11.8 | 3.22 | 41 |
| O=C(O)/C=C\C(=O)Nc1ccc2c(c1)-c1ccccc1C2 |  | > 100 |  | > 100 |  | > 100 |  | > 100 |  | > 100 |  | > 100 |  | > 100 |  | > 100 |  | > 100 |  | > 100 |
| Cc1c2cnccc2c(C)c2c1c1ccccc1n2CCOC(=O)c1ccccc1 |  | 25.5 |  | 34.8 |  | 28 |  | 56.3 |  | 54.1 |  | 40.2 |  | 64.4 |  | 42 |  | 45.9 |  | > 100 |
| O=C1C=C(Nc2ccccc2)c2ccccc2C1=O | 2.95 | 8.99 | 1.65 | 3.12 | 3.11 | 13.7 | 2.56 | 7.88 | 2.35 | 5.17 | 2.2 | 6.73 | 3.54 | 14.7 | 1.79 | 3.25 | 3.22 | 12.4 | 3.17 | 9.88 |
| Cn1cc(-c2ccc3nc(-c4ccc(CC(=O)Nc5cc(C(C)(C)C)no5)cc4)cnc3c2)cn1 | 0.0938 | 0.712 | 0.0297 | > 3 | 0.0102 | > 3 | 0.0144 | > 3 | 0.0859 | > 3 | > 1.48 | > 3 | 0.692 | > 3 | 0.0784 | > 3 | < 0.0445 | > 3 | 0.0827 | > 3 |
| CN(C)CCNC(=O)c1cc2c3cc(Cl)ccc3[nH]c2c2ncccc12 | 6.89 | 24.4 | 1.94 | 3.77 | 3.52 | 19.6 | 1.62 | 6.98 | 2.33 | 10.3 | 4.52 | 19.7 | 2.09 | 5.47 | 3.92 | 14.9 | 1.68 | 4.1 | 3.8 | 17.8 |
| CCCCn1c(=O)[nH]c(N)c([C@@H]2c3c([nH]c(=O)n(CCCC)c3=O)Oc3ccc4ccccc4c32)c1=O | 2.74 | 11.9 | 1.67 | 3.36 | 1.62 | 3.26 | 1.8 | 3.59 | 2.46 | 4.73 | 1.72 | 3.36 | 0.326 | 1.38 | 2.41 | 5.78 | 0.458 | 15.8 | 10.7 | 37.6 |
| C=CCc1cccc(C=O)c1O | > 100 | > 100 | 35.9 | > 100 | > 100 | > 100 | > 100 | > 100 | 67.9 | > 100 | 14.6 | > 100 | 4 | > 100 | > 100 | > 100 | 22 | > 100 | 10.2 | > 100 |
| CN1C(=O)C(c2c[nH]c3ccccc23)=C(c2c[nH]c3ccccc23)C1=O | 12 | > 25 | 3.07 | 17.3 | 3.92 | 12.1 | 6 | > 25 | 8.47 | > 25 | 9.77 | > 25 | 7.84 | > 25 | 7.65 | 24.8 | 7.14 | > 25 | 6.57 | > 25 |
| O=C(N/N=C/c1ccc(Cl)cc1)c1ccc(NC(=O)c2ccccn2)cc1 | 31 | > 100 | 24.5 | > 100 | 21.1 | > 100 | 19.1 | 59.3 | > 100 | > 100 | 30 | > 100 | > 100 | > 100 | > 100 | > 100 | 70.8 | > 100 | 21.2 | > 100 |
| COc1cc(/C=C/C(=O)c2cccc(-n3cc(-c4ccccc4)[nH]c3=O)c2)cc(OC)c1OC | 3.27 | 11.3 | 1.52 | 2.98 | 1.75 | 4.57 | 1.6 | 3.21 | 0.662 | 1.85 | 2.35 | 5.69 | 0.64 | > 100 | 1.52 | 3.17 | 0.565 | > 100 | 2.19 | 6.9 |
| COc1ccc(-c2nc3sc(-c4cc(OC)c(OC)c(OC)c4)nn3c2/C=C2/C(=O)Nc3ccc(F)cc32)cc1 | 2.84 | 7.34 | 13.3 | 33.4 | 4.48 | 20 | 3.29 | 15.3 | 2.18 | 4.68 | 15.1 | 44 | 5.49 | > 100 | 3.35 | 11.3 | 23.5 | > 100 | 2.01 | 5.16 |
| CC1CCCCCC(=O)c2c(O)cc(O)cc2CC(=O)O1 (centres undefined) |  | > 100 |  | > 100 |  | > 100 |  | > 100 |  | > 100 |  | > 100 |  | > 100 |  | > 100 |  | > 100 |  | > 100 |
| O=[N+]([O-])c1ccc(C2=NCCO2)cc1 | > 100 | > 100 | > 100 | > 100 | > 100 | > 100 | > 100 | > 100 | > 100 | > 100 | > 100 | > 100 | 3.15 | > 100 | > 100 | > 100 | > 100 | > 100 | > 100 | > 100 |
| CC(C)=CCC/C(C)=C/CC/C(C)=C/CSC[C@H](NC(=O)CCCCCN1CCN(C)CC1)C(=O)NC1CCCCCC1 | 5.16 | 17.1 | 1.78 | 3.44 | 2.84 | 9.19 | 1.75 | 3.21 | 2.19 | 4.74 | 2.02 | 4.43 | 2.35 | 7.07 | 1.85 | 3.63 | 1.98 | 5.35 | 2.22 | 6.45 |
| O=C(O)c1ccc(N(/C=C/C(=O)C(F)(F)F)Cc2ccc(Cl)cc2)cc1 | 35.5 | > 100 | 24 | 66.3 | 34.6 | > 100 | 24.4 | 66 | 37 | > 100 | 47.9 | > 100 | 25.8 | > 100 | 30.7 | 86.8 | 27.3 | 71.5 | 28.5 | 93.9 |
| Cn1cc(C2=C(c3ccsc3)C(=O)NC2=O)c2ccccc21 | > 25 | > 25 | > 25 | > 25 | > 25 | > 25 | > 25 | > 25 | > 25 | > 25 | > 25 | > 25 | > 21.1 | > 25 | > 25 | > 25 | > 25 | > 25 | 7.97 | > 25 |
| Cc1c(Cl)cccc1C(=O)Nc1nc2c(s1)CN(C(=O)Nc1cccc(C(F)(F)F)c1)CC2 | 0.215 | > 50 | 0.366 | > 50 | 0.216 | > 50 | 0.326 |  | 0.173 | > 23.3 | 0.307 | > 50 | 0.194 | > 50 | 2.21 | > 50 | 0.0789 | > 50 | 0.239 | > 50 |
| CCN(Cc1ccc(OC)cc1)c1ccc(CO)c(Cl)c1 | 6.7 | 30.8 | 0.0986 | 0.686 | 1.14 | > 36.3 | 19.3 | > 81.5 | 2.07 | 17.3 | 26.8 | > 100 | 23.9 | > 83.3 | 0.124 | 0.312 | 24.7 | > 72.5 | 0.115 | 0.589 |
